# Marks after values point to notes of the source that are not given here.
# Tests used:
# [1] = pH 6.8
# [2] = Acute intravenous toxicity in mice; settings: acute intravenous, mice
# MRSE STE-22 = test: In-vitro antimicrobial activity test (MIC, NCCLS); type: cell-based, Staphylococcus epidermidis
# Source text: (§1) The test method was in accordance with the standard NCCLS protocol.
# in vivo = test: in vivo; set-up: species or system Swiss mice; settings: mouse
# Description: The blood levels of RS-(±)-Nadifloxacin and S-(−)-Nadifloxacin administered orally to Swiss mice at a dose of 30mg/kg are shown in Table 3 with respect to the AUC (μg/ml.hr), monitored from 15 minutes to 4 hours.
# [3] = system: Gram-positive and Gram-negative bacteria; settings: cited from earlier work
# [4] = mouse, in vivo
# [5] = system: Escherichia coli ATCC 25922; test: In-vitro antimicrobial activity test (MIC, NCCLS); type: cell-based
# Source text: as §1
# [6] = system: Staphylococcus aureus ATCC 25923; test: In-vitro antimicrobial activity test (MIC, NCCLS); type: cell-based
# Source text: as §1
# Propioni bacterium acnes = test: In-vitro antimicrobial activity test (MIC, NCCLS); type: cell-based
# Source text: as §1
# Bacteroides fragilis = test: In-vitro antimicrobial activity test (MIC, NCCLS); type: cell-based
# Source text: as §1
# Serratia marcescens = test: In-vitro antimicrobial activity test (MIC, NCCLS); type: cell-based
# Source text: as §1
# [7] = system: Enterococcus faecalis ATCC 29212; test: In-vitro antimicrobial activity test (MIC, NCCLS); type: cell-based
# Source text: as §1
# [8] = system: Mycobacterium intracellulare; test: In-vitro antimicrobial activity test (MIC, NCCLS); type: cell-based
# Source text: as §1
# Mycobacterium avium = test: In-vitro antimicrobial activity test (MIC, NCCLS); type: cell-based
# Source text: as §1
# Pseudomonas aeruginosa = test: In-vitro antimicrobial activity test (MIC, NCCLS); type: cell-based
# Source text: as §1
# [9] = system: Mycobacterium tuberculosis ATCC 27294; test: In-vitro antimicrobial activity test (MIC, NCCLS); type: cell-based
# Source text: as §1
# Corynebacterium jeikeium = test: In-vitro antimicrobial activity test (MIC, NCCLS); type: cell-based
# Source text: as §1
# [10] = system: Streptococcus pneumoniae ATCC 6303; test: In-vitro antimicrobial activity test (MIC, NCCLS); type: cell-based
# Source text: as §1
# Haemophilus influenzae = test: In-vitro antimicrobial activity test (MIC, NCCLS); type: cell-based
# Source text: as §1
# [11] = system: Chryseobacterium meningosepticum; test: In-vitro antimicrobial activity test (MIC, NCCLS); type: cell-based
# Source text: as §1
# Streptococcus pyogenes = test: In-vitro antimicrobial activity test (MIC, NCCLS); type: cell-based
# Source text: as §1
# Enterococcus faecium = test: In-vitro antimicrobial activity test (MIC, NCCLS); type: cell-based
# Source text: as §1
# [12] = system: Viridans group Streptococci; test: In-vitro antimicrobial activity test (MIC, NCCLS); type: cell-based
# Source text: as §1
# [13] = system: S.aureus strain bearing Nor A efflux pump; type: cell-based; settings: Nor A efflux pump strain vs strain devoid of efflux pump
# Description: Using this set of MIC values, % loss in potency due to efflux was calculated for each of the fluoroquinolone in Table 5
# [14] = in vivo
# [15] = system: Gram-positive pathogens such as staphylococci and enterococci, and Gram-negative pathogens such as E.coli, Klebsiella, Proteus, Serratia, Citrobacter, and …; test: Antibacterial potency (MIC) at acidic pH of 5.5, summary; type: cell-based; settings: acidic pH of 5.5, some organisms
# P. rettgeri N 1764 = test: Effect of pH on potency of fluoroquinolones (MIC at pH 5.5 and 7.0); type: cell-based; settings: MIC pH 7 vs pH 5.5
# Source text: (§2) The test method was in accordance with the standard NCCLS protocol employing test media adjusted at pH 5.5 and 7.0.
# Serratia marcescens 2702 = test: as above; type: cell-based; settings: MIC pH 7 vs pH 5.5
# Source text: as §2
# [16] = system: human liver cell-line Hep-G2; test: Human liver cell line cytotoxicity assay (Minimum Toxic Dose); type: cell-based; settings: 3 hours exposure, 4 days incubation, Almar blue
# Description: The procedure involved cultivation of cells of human liver cell-line Hep-G2 in DMEM medium containing 5% foetal bovine and exposure to various concentrations of trovafloxacin and S-(−)-Nadifloxacin for 3 hours. The drug containing medium was then replaced with a fresh medium and cells were incubated in 5% CO2 atmosphere at 37° C. for 4 days. Almar blue dye which is an indicative of active respiration was then added to individual sample to access the toxicity of the drugs. The hepatotoxic potential of a drug is expressed in terms of Minimum Toxic Dose (MTD) which is defined as minimum concentration of a drug which brings about inhibition of colour change from blue to pink.
# [17] = system: Mupirocin-resistant Staph STA-34; test: In-vitro antimicrobial activity test (MIC, NCCLS); type: cell-based, Staphylococcus aureus
# Source text: as §1
# MRSA STA-4 = test: In-vitro antimicrobial activity test (MIC, NCCLS); type: cell-based, Staphylococcus aureus
# Source text: as §1
structure (smiles),measurement,setting,value
"CC(=O)O.C[C@@H](N)C(=O)OC1CCN(c2c(F)cc3c(=O)c(C(=O)O)cn4c3c2CC[C@@H]4C)CC1 [Example 30, 8-{4-[2(R)-Amino-propionyloxy]piperidin-1-yl}-9-fluoro-5(S)-methyl-6,7-dihydro-1-oxo-1H,5H-benzo[i,j]quinolizine-2-carboxylic acid, acetate]",Water solubility,[1],>250 mg/mL
"C[C@H]1CCc2c(N3CCC(O)CC3)c(F)cc3c(=O)c(C(=O)O)cn1c23 [S-(−)-Nadifloxacin, S-(−)-9-fluoro-8-(4-hydroxy-piperidin-1-yl)-5-methyl-6,7-dihydro-1-oxo-1H,5H benzo[i,j]quinolizine-2-carboxylic acid]",LD50,[2],>400* mg/kg
same,MIC,MRSE STE-22,0.4 µg/mL
same,"oral bioavailability, times higher than RS-(±)-Nadifloxacin",in vivo,2 times
same,AUC,"in vivo; po, 30 mg/kg",33580 ng·h/mL
same,in-vitro activity compared with racemic Nadifloxacin,[3],approximtely twice as active
same,acute intravenous toxicity compared with RS-(±)-Nadifloxacin,[4],significantly lower
same,MIC,[5],0.2 µg/mL
same,MIC,[6],0.025 µg/mL
same,MIC,Propioni bacterium acnes,0.1 µg/mL
same,MIC,Bacteroides fragilis,0.8 µg/mL
same,MIC,Serratia marcescens,0.4 µg/mL
same,MIC,[7],0.2 µg/mL
same,MIC,[8],1.56 µg/mL
same,MIC,Mycobacterium avium,3.12 µg/mL
same,MIC,Pseudomonas aeruginosa,1.56 µg/mL
same,MIC,[9],0.8 µg/mL
same,MIC,Corynebacterium jeikeium,0.05 µg/mL
same,MIC,[10],0.2 µg/mL
same,MIC,Haemophilus influenzae,0.025 µg/mL
same,MIC,[11],0.8 µg/mL
same,MIC,Streptococcus pyogenes,0.2 µg/mL
same,MIC,Enterococcus faecium,0.4 µg/mL
same,MIC,[12],0.2 µg/mL
same,% loss in potency for S. aureus bearing Efflux pump,[13],0%
same,phototoxicity potential,[14],negligible phototoxicity potential
same,MIC improves by,[15],100%
same,"% change in potency at pH 5.5, loss (−)/gain (+)",P. rettgeri N 1764,0.00%
same,"% change in potency at pH 5.5, loss (−)/gain (+)",Serratia marcescens 2702,0.00%
same,"dosage tolerated by Hep-G-2 cells, times higher than trovafloxacin",[16],4 times
same,MIC,[17],0.4 µg/mL
same,MIC,MRSA STA-4,0.4 µg/mL

# From patent US6750224B1, “Antibacterial optically pure benzoquinolizine carboxylic acids, processes, compositions and methods of treatment” (priority 1999, dated 2004)
